Common to all, as to format: cell-based, human
In assay [1] the test system is COX-2 gene expression. Put plainly: Real time RT-PCR of COX-2 gene expression in HPMVEC. As to conditions: for effect of pre-incubation on COX-2 gene expression in CSE-exposed cells: four hour pre-incubation (SOD mimetic 100 U/ml, catalase 100 U/ml, DPI 0.1 μM, L-NAME 1 mM), 1% CSE for 4 hours; for COX-2 gene expression after aldehyde exposure: HPMVEC, 1 and 10 μM acrolein. The protocol: (§1) Human pulmonary microvascular endothelial cells (HPMVEC, passage 4-6) and EGM-2-MV medium (containing 5% FBS, hydrocortisone, human recombinant VEGF, recombinant human fibroblast growth factor-B, recombinant insulin-like growth factor-1, human recombinant epidermal growth factor, ascorbic acid, gentamycin and amphotericin-B) were purchased from Clonetics Corporation (Baltimore, Md., USA). Cells were grown to confluency at 37° C. in a humidified atmosphere of 21% O2, 5% CO2. N-acetyl-L-cysteine (NAC) and diphenyleneiodonium chloride (DPI) were obtained from Sigma-Aldrich (St. Louis, Mo., USA). N-nitro-l-arginine methyl ester (L-NAME) was obtained from Cayman Chemical (Ann Arbor, Mich.). Z-Asp2,6-dichlorobenzoylmethylketone (Caspase Family Inhibitor IV) was obtained from Alexis Biochemicals (San Diego, Calif., USA). Both an SOD mimetic and catalase were obtained from National Jewish Medical Center. Acrolein, an α,β-unsaturated aldehyde, and several […] aldehydes (acetaldehyde, crotonaldehyde, proprionaldehyde (i.e., propanal) were purchased from Sigma Aldrich (St. Louis, Mo., USA)
(§2) Cigarette smoke extract was prepared by a modification of a previously published method, e.g., Carp et al., Am. Rev. Respir. Dis., 1978, 118, 617-621. Briefly, one non-filtered Camel cigarette (R.J. Reynolds, Winston-Salem, N.C.) was passed through 10 mL of Phosphate-buffered saline (PBS) using a vacuum pump. This 100% CSE was adjusted to pH 7.4 and filtered through a […] pore filter (Fisher, Hampton, N.H., USA) and the CSE was diluted to the appropriate concentration and added to endothelial cells within 10 min of preparation.
(§3) Total RNA was extracted using the RNeasy Mini Kit (Qiagen, Valencia, Calif.), following the manufacturer's instructions. 1 μg of RNA was reverse-transcribed using random primer and MultiScribe RT (High-Capacity cDNA Archive Kit, Applied Biosystems, Foster City, Calif.). Assay-on-demand gene expression probe for PGI2S: Hs00168766, COX-1:Hs00377721, COX-2:Hs00153133, cPLA2:Hs00233352, and β-actin: Hs999999903 were obtained from Applied Biosystems (Foster City, Calif.) PCR reactions were performed in 20 μL volumes containing 9 μL of cDNA, 10 μL of TaqMan Master Mix (Applied Biosystems) and 1 μL of assay-on-demand primer and probe. Real-time PCR was conducted on the Applied Biosystems GeneAmp 5700 sequence Detection System and signal was detected by the GeneAmp 5700 SDS software (Applied Biosystems). All values were reported relative to β-Actin expression.
Background: Quantitative PCR measures a nucleic acid by following its amplification.

Assay [2] has as its system PGI2S gene expression. The experiment in a line: Real time RT-PCR of PGI2S gene expression in HPMVEC. As to conditions: for effect of pre-incubation on PGI2S gene expression in CSE-exposed cells: four hour pre-incubation (SOD mimetic 100 U/ml, catalase 100 U/ml, DPI 0.1 μM, L-NAME 1 mM), 1% CSE for 4 hours; for PGI2S gene (mRNA) expression after aldehyde exposure: HPMVEC, 1 and 10 μM aldehyde, about 24 hours after exposure. The protocol:
as §1, §2, §3

In assay [3] the test system is PGI2S protein expression. The experiment in a line: Western blotting of PGI2S protein expression in HPMVEC. As to conditions: about 48 hours post exposure. On the procedure: as §1
20 μg of protein was separated on NuPAGE Novex 4-12% Bis-Tris Gel (Invitrogen Carlsbad, Calif., USA) and transferred to a polyvinylidene fluoride (PVDF) membrane (Invitrogen, Carlsbad, Calif., USA). The membrane was blocked with 5% nonfat dry milk in PBS containing 0.05% Tween (PBST) for 1 hour. […]

Assay [4] has as its system HPMVEC. The experiment in a line: Caspase 3/7 assay of apoptosis in HPMVEC exposed to CSE. The note with it: HPMVEC pre-treated with Iloprost 1 μM and 10 μM for 30 minutes prior to CSE exposure. The protocol: Human pulmonary microvascular endothelial cells (HPMVEC, passage 4-6) and EGM-2-MV medium (containing 5% FBS, hydrocortisone, human recombinant VEGF, recombinant human fibroblast growth factor-B, recombinant insulin-like growth factor-1, human recombinant epidermal growth factor, ascorbic acid, gentamycin and amphotericin-B) were purchased from Clonetics Corporation (Baltimore, Md., USA). Cells were grown to confluency at 37° C. in a humidified atmosphere of 21% O2, 5% CO2. N-acetyl-L-cysteine (NAC) and diphenyleneiodonium chloride (DPI) were obtained from Sigma-Aldrich (St. Louis, Mo., USA). N-nitro-l-arginine methyl ester (L-NAME) was obtained from Cayman Chemical (Ann Arbor, Mich.). […]
Immunohistochemical staining on both PGI2S transgenic mice and wild type littermates was conducted using similar protocols to the above, however, cleaved caspase 3 antibody (Cell Signaling technology Danvers, Mass.) was used to assess apoptosis. In a blinded fashion, small, medium and large pulmonary arteries were scored for endothelial caspase staining. In-vitro, the rate of apoptosis in primary human microvascular endothelial cells was analyzed by the Vybrant Apoptosis Assay Kit from Molecular Probes Inc. (Eugene, Oreg., USA) according to the manufacturer's protocol. […] In addition, apoptosis of HPMVEC was assessed by Caspase 3/7 assay according to the protocol provided (Promega Madison, Wis.).

Entries after “also recorded” stand apart in the source; their conditions may differ.

As for `c1ccc2c(c1)[I+]c1ccccc1-2` [DPI, diphenyleneiodonium chloride], the “effect of pre-incubation on COX-2 gene expression in CSE-exposed cells” value in assay [1] is “did not significantly affect”. Also, in assay [2], the “effect of pre-incubation on PGI2S gene expression in CSE-exposed cells” value is listed as “did not significantly affect”.

In the case of `C=CC=O` [Acrolein], the entries for the “COX-2 gene expression after aldehyde exposure” value in assay [1] and in assay [1] (listed as acrolein) were “trend toward induction” and “No significant change”, respectively. For the same compound, the “PGI2S protein expression after aldehyde exposure” value in assay [3] is “suppressed”. Moreover, the “PGI2S gene (mRNA) expression after aldehyde exposure” value (from here on “PGI2S gene (mRNA) expression”) in assay [2] is “reduction in PGI2S gene expression”. Take `CC#CCC(C)[C@H](O)/C=C/[C@@H]1[C@H]2C/C(=C/CCCC(=O)O)C[C@H]2C[C@H]1O` (stereo partly drawn) [Iloprost]: the “endothelial apoptosis as measured by caspase 3/7 activity” value in assay [4] was “significant reduction; also recorded: at least partial protective anti-apoptotic effect”. On to catalase, for which the “effect of pre-incubation on COX-2 gene expression in CSE-exposed cells” value in assay [1] is “did not significantly affect”. For the same compound, the “effect of pre-incubation on PGI2S gene expression in CSE-exposed cells” value in assay [2] is given as “did not significantly affect”. Consider `CC(=O)N[C@@H](CS)C(=O)O` [NAC, N-acetyl-L-cysteine], for which the “effect on CSE mediated induction of COX-2 gene expression” value in assay [1] (HPMVEC pre-incubated four hours with 1 mM NAC, then 1% CSE, P<0.05) is on record as “significantly reduce or prevent”. Further, the “prevention of down-regulation of PGI2S gene expression by 1% CSE” value in assay [2] (HPMVEC pre-incubated four hours with 1 mM NAC, then 1% CSE, RT-PCR at four hours and 24 hours) is on record as “no significant prevention”. As for `C/C=C/C=O` [crotonaldehyde], in assay [2], the “PGI2S gene (mRNA) expression” value is “did not result in suppression”.

Turning to `CC=O` [acetaldehyde], the “PGI2S gene (mRNA) expression” value in assay [2] is on record as “did not result in suppression”. As for `CCC=O` [propionaldehyde], the “PGI2S gene (mRNA) expression” value was “did not result in suppression” in assay [2] and “statistically significant induction” in assay [2] (listed as Propionaldehyde).
